The results in this text go back to US20230099344A1, “COMPOUNDS AND METHODS FOR THE TARGETED DEGRADATION OF IRAK-4” (Arvinas Operations, Inc., priority 2021, published 2023).

Holding throughout (assay type): cell-based
The subject of test [1] is IL6. The test can be described thus: LPS stimulated IL6 inhibition assay in PBMC. Conditions: Homo sapiens, PBMC, 24 h, human PBMCs, LPS stimulation, compound overnight, IL6 by MSD after 24 hrs; for Dmax: read-out: LPS Stim IL6 inhibition Dmax; for IC50: read-out: LPS stim IL6 inhibition IC50. How it is done:
(§1) IL-1β, LPS, or R848 Stimulated IL6 Inhibition and IL-1β Stimulated IL8 Inhibition Assay
(§2) Human PBMC cells were seeded at 2.0×10^6 cells/mL, treated with compound overnight, and dosed with the EC50 concentration of each stimulant (either IL-1B. LPS, or R848) was determined for each donor. After 24 hrs, media was collected and analyzed by MSD for IL6 and/or IL8 levels.

In test [2] the test system is IL6. The test can be described thus: R848 stimulated IL6 inhibition assay in PBMC. Conditions: PBMC, human PBMCs, R848 stimulation, compound overnight, IL6 by MSD after 24 hrs; for Dmax: Homo sapiens, 24 h, read-out: R848 stim IL6 inhibition Dmax; for IC50: read-out: R848 stim IL6 inhibition IC50. On the procedure:
as §1, §2

For the next test, the target named is T1, IRAK-4 (Homo sapiens, UniProt Q9NWZ3).
T1 sequence (Q9NWZ3 1-460): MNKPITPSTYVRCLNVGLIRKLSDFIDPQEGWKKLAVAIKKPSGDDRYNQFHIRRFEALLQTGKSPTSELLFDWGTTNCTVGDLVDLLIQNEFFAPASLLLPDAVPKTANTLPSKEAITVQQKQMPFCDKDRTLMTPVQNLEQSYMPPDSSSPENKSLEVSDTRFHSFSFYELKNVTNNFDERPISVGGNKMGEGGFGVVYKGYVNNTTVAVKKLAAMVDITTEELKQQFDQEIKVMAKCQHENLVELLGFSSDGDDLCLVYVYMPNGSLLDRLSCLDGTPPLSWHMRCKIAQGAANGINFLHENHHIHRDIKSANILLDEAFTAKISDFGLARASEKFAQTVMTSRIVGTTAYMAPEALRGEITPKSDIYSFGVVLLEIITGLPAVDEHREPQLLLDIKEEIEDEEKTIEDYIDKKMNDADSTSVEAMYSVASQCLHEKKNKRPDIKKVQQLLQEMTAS
The test can be described thus: IRAK-4 ELISA, PBMC degradation. More on the design: endogenous in cells; host or cells: PBMC. Conditions: treated overnight. Summed up:
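OCI-Ly10 cells (seeded at 1×10^6/ml) or human PBMC (seeded at 2×10^6/ml) were treated with compound on the day of seeding and incubated overnight. Lysates were then assayed for remaining IRAK-4 protein by sandwich ELISA with a matched antibody pair.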
A general note: ELISA stands for enzyme-linked immunosorbent assay.

Take `O=C1CCC(N2Cc3cc(N4CC(O[C@H]5CC[C@H](n6cc7cc(NC(=O)c8cnn9cccnc89)c(OCC8CC8)cc7n6)CC5)C4)ccc3C2=O)C(=O)N1` (stereo partly shown) [Example 423, N-[6-(cyclopropylmethoxy)-2-[(1r,4r)-4-({1-[2-(2,6-dioxopiperidin-3-yl)-1-oxo-2,3-dihydro-1H-isoindol-5-yl]azetidin-3-yl}oxy)cyclohexyl]-2H-indazol-5-yl]pyrazolo[1,5-a]pyrimidine-3-carboxamide]: in the test on IL6 [1], the Dmax fell in the range of 80 to 90% and the IC50 (as a rule, the concentration needed to halve the response being measured) lay in the range of 0.01 to 0.05 µM. For the same compound, in the test with IL6 [2], the Dmax is at least 90% and the IC50 lay within 0.01 to 0.05 µM. At IRAK-4, the DC50 – broadly, the concentration giving 50% degradation – lay in the range of 0.001 to 0.005 µM; the Dmax is at least 90%; the “PBMC DC90” value is “B (B represents a DC90 value ≥10.0 nM and <25.0 nM)”.

For the compound `CC(C)Oc1cc2c(cc1NC(=O)c1cnn3cccnc13)CN([C@H]1CC[C@H](N3CC4(CN(c5ccc6c(c5)C(=O)N(C5CCC(=O)NC5=O)C6=O)C4)C3)CC1)C2=O` (stereo partly shown) [Example 366], in the test with IL6 [1], the Dmax is 80 to 90% and the IC50 is under 0.01 µM. In addition, in the test with IL6 [2], the Dmax is at least 90% and the IC50 was under 0.01 µM. At IRAK-4, the DC50 was 0.001 to 0.005 µM, the Dmax was at least 90% and the “PBMC DC90” value is “A (A represents a DC90 value <10.0 nM)”.

For the compound `CC(C)Oc1cc2c(cc1NC(=O)c1cnn3cccnc13)CN([C@H]1CC[C@H](CN3CCC(c4ccc5c(c4)C(=O)N(C4CCC(=O)NC4=O)C5=O)CC3)CC1)C2=O` (stereo partly shown) [Example 432], in the test with IL6 [1], the Dmax lay within 70 to 80% and the IC50 fell in the range of 0.01 to 0.05 µM. For the same compound, in the test on IL6 [2], the Dmax was at least 90% and the IC50 is 0.01 to 0.05 µM. At IRAK-4, the DC50 lay in the range of 0.001 to 0.005 µM, the Dmax is at least 90% and the “PBMC DC90” value is given as “A (A represents a DC90 value <10.0 nM)”.

As for `O=C1CCC(N2C(=O)c3ccc(N4CC(F)(CN5CCC(n6cc7cc(NC(=O)c8cnn9cc(Cl)cnc89)c(OCC8CC8)cc7n6)CC5)C4)cc3C2=O)C(=O)N1` (stereo not shown) [Example 255], in the test with IL6 [1], the Dmax fell in the range of 70 to 80% and the IC50 was 0.05 to 0.1 µM. Also, in the test with IL6 [2], the Dmax was at least 90% and the IC50 is 0.05 to 0.1 µM. At IRAK-4, the DC50 was at least 0.01 µM, the Dmax was at least 90% and the “PBMC DC90” value is “D (D represents a DC90 value ≥50 nM)”.

As for `O=C1CCC(N2C(=O)c3ccc(N4CCC5(CC4)CC(CN4CCC(n6cc7cc(NC(=O)c8cnn9cccnc89)c(OCC8CC8)cc7n6)CC4)C5)cc3C2=O)C(=O)N1` (stereo not shown) [Example 261], in the test on IL6 [1], the Dmax was in the range of 80 to 90% and the IC50 was 0.01 to 0.05 µM. In the test on IL6 [2], the Dmax fell in the range of 80 to 90% and the IC50 was 0.05 to 0.1 µM. At IRAK-4, the DC50 fell in the range of 0.001 to 0.005 µM, the Dmax was at least 90% and the “PBMC DC90” value is “A (A represents a DC90 value <10.0 nM)”.

On to `CC(C)Oc1cc2c(cc1NC(=O)c1cnn3cccnc13)CN(C1CCN(CC3(O)CCN(c4ccc5c(c4)C(=O)N(C4CCC(=O)NC4=O)C5=O)CC3)CC1)C2=O` (stereo not shown) [Example 109], for which, in the test with IL6 [1], the Dmax is 70 to 80% and the IC50 lay in the range of 0.01 to 0.05 µM. In the test with IL6 [2], the Dmax was at least 90% and the IC50 is 0.01 to 0.05 µM. On IRAK-4, the DC50 was under 0.001 µM, the Dmax is at least 90% and the “PBMC DC90” value is given as “A (A represents a DC90 value <10.0 nM)”.

With `CC(C)Oc1nc2c(cc1NC(=O)c1cnn3cccnc13)CN(C1CCN(CC3CCN(c4ccc(C(=O)NC5CCC(=O)NC5=O)c(F)c4)CC3)CC1)C2=O` (stereo not shown) [Example 309], in the test on IL6 [1], the Dmax was under 70% and the IC50 lay in the range of 0.01 to 0.05 µM. In addition, in the test on IL6 [2], the Dmax lay within 80 to 90% and the IC50 lay within 0.01 to 0.05 µM. Further, at IRAK-4, the DC50 is 0.001 to 0.005 µM; the Dmax was at least 90%; the “PBMC DC90” value was “B (B represents a DC90 value ≥10.0 nM and <25.0 nM)”.

With `Cn1c(=O)n(C2CCC(=O)NC2=O)c2cccc(N3CC(CN4CCC(n5cc6cc(NC(=O)c7cnn8cccnc78)c(OCC7CC7)cc6n5)CC4)C3)c21` (stereo not shown) [Example 378, N-(6-(cyclopropylmethoxy)-2-(1-((1-(1-(2,6-dioxopiperidin-3-yl)-3-methyl-2-oxo-2,3-dihydro-1H-benzo[d]imidazol-4-yl)azetidin-3-yl)methyl)piperidin-4-yl)-2H-indazol-5-yl)pyrazolo[1,5-a]pyrimidine-3-carboxamide], in the test with IL6 [1], the Dmax was 80 to 90% and the IC50 was under 0.01 µM. Moreover, in the test on IL6 [2], the Dmax was at least 90% and the IC50 was under 0.01 µM. At IRAK-4, the DC50 was under 0.001 µM, the Dmax is at least 90% and the “PBMC DC90” value is listed as “A (A represents a DC90 value <10.0 nM)”.

For the compound `O=C1CCC(N2C(=O)c3ccc(O[C@H]4C[C@H](N[C@H]5CC[C@H](n6cc7cc(NC(=O)c8cnn9cccnc89)c(OCC8CC8)cc7n6)CC5)C4)cc3C2=O)C(=O)N1` (stereo partly shown) [Example 374], in the test on IL6 [1], the Dmax lay within 70 to 80% and the IC50 lay within 0.01 to 0.05 µM. For the same compound, in the test with IL6 [2], the Dmax is at least 90% and the IC50 was 0.01 to 0.05 µM. For the same compound, on IRAK-4, the DC50 was under 0.001 µM; the Dmax is at least 90%; the “PBMC DC90” value is “B (B represents a DC90 value ≥10.0 nM and <25.0 nM)”.

For the compound `O=C1CCC(NC(=O)c2ccc(O[C@H]3C[C@H](N[C@H]4CC[C@H](n5cc6cc(NC(=O)c7cnn8cccnc78)c(OCC7CC7)cc6n5)CC4)C3)cc2F)C(=O)N1` (stereo partly shown) [Example 376], in the test with IL6 [1], the Dmax lay in the range of 70 to 80% and the IC50 is 0.01 to 0.05 µM. Also, in the test with IL6 [2], the Dmax was at least 90% and the IC50 lay within 0.01 to 0.05 µM. Moreover, at IRAK-4, the DC50 lay within 0.001 to 0.005 µM, the Dmax is at least 90% and the “PBMC DC90” value is “A (A represents a DC90 value <10.0 nM)”.

`O=C1CCC(N2C(=O)c3ccc(N4CC(F)(CN5CCC(n6cc7cc(NC(=O)c8cnn9cccnc89)c(OCC8CC8)cc7n6)CC5)C4)c(F)c3C2=O)C(=O)N1` (stereo not shown) [Example 262]: in the test on IL6 [1], the Dmax is under 70% and the IC50 lay in the range of 0.05 to 0.1 µM. In the test with IL6 [2], the Dmax was at least 90% and the IC50 fell in the range of 0.01 to 0.05 µM. Further, at IRAK-4, the DC50 lay within 0.001 to 0.005 µM, the Dmax was in the range of 70 to 80% and the “PBMC DC90” value is given as “A (A represents a DC90 value <10.0 nM)”.

With `O=C1CCC(N2Cc3c(ccc(N4CCC(CN5CCC(n6cc7cc(NC(=O)c8cnn9cccnc89)c(OCC8CC8)cc7n6)CC5)CC4)c3F)C2=O)C(=O)N1` (stereo not shown) [Example 153], in the test with IL6 [1], the Dmax is at least 90% and the IC50 is under 0.01 µM. In the test on IL6 [2], the Dmax was in the range of 80 to 90% and the IC50 is under 0.01 µM. In addition, at IRAK-4, the DC50 was under 0.001 µM, the Dmax fell in the range of 80 to 90% and the “PBMC DC90” value was “A (A represents a DC90 value <10.0 nM)”.

For `COc1cc(N2CC(F)(CN3CCC(n4cc5cc(NC(=O)c6cnn7cccnc67)c(OCC6CC6)cc5n4)CC3)C2)cc2c1C(=O)N(C1CCC(=O)NC1=O)C2=O` (stereo not shown) [Example 240], in the test with IL6 [1], the Dmax was 80 to 90% and the IC50 lay in the range of 0.05 to 0.1 µM. In addition, in the test on IL6 [2], the Dmax is at least 90% and the IC50 lay within 0.01 to 0.05 µM. Further, on IRAK-4, the DC50 was under 0.001 µM, the Dmax lay in the range of 80 to 90% and the “PBMC DC90” value is “A (A represents a DC90 value <10.0 nM)”.

With `CC(C)Oc1cc2c(cc1NC(=O)c1cnn3cccnc13)CN(C1CCN(C(C)(C)C3CN(c4ccc(F)c(C(=O)NC5CCC(=O)NC5=O)c4)C3)CC1)C2=O` (stereo not shown) [Example 311], in the test on IL6 [1], the Dmax was 70 to 80% and the IC50 was at least 0.1 µM. Further, in the test with IL6 [2], the Dmax is at least 90% and the IC50 fell in the range of 0.01 to 0.05 µM. In addition, on IRAK-4, the DC50 was in the range of 0.005 to 0.01 µM, the Dmax lay within 80 to 90% and the “PBMC DC90” value is listed as “D (D represents a DC90 value ≥50 nM)”.

Take `CN(CCN1CCN(c2ccc3c(c2)C(=O)N(C2CCC(=O)NC2=O)C3=O)CC1)[C@H]1CC[C@H](n2cc3cc(NC(=O)c4cnn5cccnc45)c(OCC4CC4)cc3n2)CC1` (stereo partly shown) [Example 359]: in the test with IL6 [1], the Dmax was 80 to 90% and the IC50 was under 0.01 µM. In addition, in the test on IL6 [2], the Dmax was at least 90% and the IC50 is under 0.01 µM. For the same compound, at IRAK-4, the DC50 was under 0.001 µM, the Dmax was 80 to 90% and the “PBMC DC90” value is “A (A represents a DC90 value <10.0 nM)”.

In the case of `O=C1CCC(N2Cc3cc(N4CC(F)(CN5CCC(N6Cc7cc(NC(=O)c8cnn9cccnc89)c(N8CCC(N9CCC9)CC8)cc7C6=O)CC5)C4)ccc3C2=O)C(=O)N1` (stereo not shown) [Example 117], in the test on IL6 [1], the Dmax fell in the range of 70 to 80% and the IC50 was in the range of 0.01 to 0.05 µM. Moreover, in the test with IL6 [2], the Dmax lay within 80 to 90% and the IC50 lay in the range of 0.01 to 0.05 µM. Further, on IRAK-4, the 50% degradation concentration (DC50) lay within 0.001 to 0.005 µM; the Dmax is at least 90%; the “PBMC DC90” value is “B (B represents a DC90 value ≥10.0 nM and <25.0 nM)”.
